Data reported in patent US20100305202A1, “LYOPHILIZED PHARMACEUTICAL COMPOSITION WITH IMPROVED STABILITY CONTAINING TAXANE DERIVATIVES, AND METHOD OF MANUFACTURING THE SAME” (priority 2007, published 2010).

Legend:
[1] = no additive; cited from earlier work
[2] = Solubility of docetaxel in distilled water with PVP and HPBCD (Experimental Example 1); type: physicochemical
Description: The solubility of docetaxel was measured by performing liquid chromatography with UV detector (230 nm).
The solubility of docetaxel in distilled water proportionally increases between 10% and 30% of weight ratio (w/v %) of hydroxypropyl β-cyclodextrin (HPBCD).
Further, the ratio of HPBCD relative to docetaxel was at least 1:11 and the concentration of HPBCD will be lowered if the concentration unit (w/v) is converted into (mg/mL) unit. Therefore, docetaxel may be solubilized even when the ratio of docetaxel:HPBCD becomes smaller than 1:11. Therefore, according to the present invention, it is preferable to use more than 1 part by weight of hydroxypropyl β-cyclodextrin (HPBCD), and more preferably 5 parts by weight relative to 1 part by weight of the taxoid.

CC(=O)O[C@@]12CO[C@@H]1C[C@H](O)[C@@]1(C)C(=O)[C@H](O)C3=C(C)[C@@H](OC(=O)[C@H](O)[C@@H](NC(=O)OC(C)(C)C)c4ccccc4)C[C@@](O)([C@@H](OC(=O)c4ccccc4)[C@H]21)C3(C)C [docetaxel]
commonly known solubility of docetaxel in distilled water [1]: 0.025 µg/mL
better solubility with HPBCD versus distilled water ([2]; 31.1 mg/mL versus 0.000025 mg/mL): 1.2 million
solubility of docetaxel added with HPBCD in distilled water ([2]; with hydroxypropyl β-cyclodextrin (HPBCD)): 31.1 mg/mL
